{"source": "paper PMC4432589", "about": "“Structural basis for dynamic mechanism of nitrate/nitrite antiport by NarK” (Nature Communications, 2015)", "key": {"NarK [1]": {"target": "T1, NarK (Escherichia coli, UniProt P10903)", "T1 construct": "full-length gene in pET-modified vector; GFP-His8 tag cleaved by TEV protease; expressed in E. coli C41(DE3) delta-acrB; DDM/CHS purified; LCP crystals or soybean lipid proteoliposomes", "T1 sequence (P10903 1-463)": "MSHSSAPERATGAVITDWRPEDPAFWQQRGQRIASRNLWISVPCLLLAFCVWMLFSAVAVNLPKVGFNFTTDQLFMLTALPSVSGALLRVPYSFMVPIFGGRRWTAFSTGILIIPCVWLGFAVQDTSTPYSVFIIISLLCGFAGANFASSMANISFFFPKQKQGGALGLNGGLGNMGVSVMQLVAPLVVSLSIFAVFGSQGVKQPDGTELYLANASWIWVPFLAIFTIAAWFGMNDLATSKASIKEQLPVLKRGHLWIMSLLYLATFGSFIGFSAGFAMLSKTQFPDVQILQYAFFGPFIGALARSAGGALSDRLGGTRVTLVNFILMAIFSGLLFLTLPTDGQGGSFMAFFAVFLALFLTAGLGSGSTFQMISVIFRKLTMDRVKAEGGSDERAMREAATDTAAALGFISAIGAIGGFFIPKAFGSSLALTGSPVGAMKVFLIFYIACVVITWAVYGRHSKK", "experiment": "X-ray crystal structure (LCP, SIRAS and molecular replacement)", "conditions": "occluded state (2.4 Å, pH 5.8, 100 mM NH4NO3) and inward-open state (2.4 Å, pH 6.0); central substrate-binding site"}, "NarK [2]": {"target": "T1, NarK", "experiment": "nitrite uptake into NarK proteoliposomes, DAF-FM fluorescence", "assay_type": "biochemical", "conditions": "50 mM NaNO2 outside, 50 mM NaNO3 inside as counter-anion; pH 7.0; membrane potential; 37 °C"}}, "data": [{"smiles": "O=[N+]([O-])O", "note": "[nitrate]", "values": [{"measurement": "X-ray crystal structure (LCP, SIRAS and molecular replacement)", "setting": "NarK [1]", "result": "4U4T (nitrate-bound inward-open state) and 4U4W (nitrate-bound occluded state)"}]}, {"smiles": "O=NO", "note": "[nitrite]", "values": [{"measurement": "nitrite uptake into NarK proteoliposomes, DAF-FM fluorescence", "setting": "NarK [2]", "result": "We observed the uptake of nitrite when nitrate was present inside the liposomes"}]}]}
